Assay results published in US20200411135A1, “Neoantigen Identification with Pan-Allele Models” (Gritstone Oncology, Inc., priority 2018, published 2020).
Peptide text beside a SMILES is read from it.

Test system: in vitro expanded PBMCs (neoantigen-reactive T-cells) from NSCLC patients
Experiment: IFN-gamma ELISpot on in vitro stimulated (IVS) patient PBMCs with patient-specific neoantigen peptides and peptide pools
Format: cell-based, human
Conditions: patient PBMCs after 14 days IVS; >2-fold increase above DMSO background considered positive
Procedure: To do so, archival FFPE tumor biopsies and 5-30 ml of peripheral blood were analyzed from 9 patients with metastatic NSCLC undergoing anti-PD(L)1 therapy (Supplementary Table 1: Patient demographics and treatment information for N=9 patients studied in FIGS. 26A-C. Key fields include tumor stage and subtype, anti-PD1 therapy received, and summary of NGS results.). […] The full MS model was applied to prioritize 20 neoepitopes per patient for testing against pre-existing anti-tumor T-cell responses. To focus the analysis on likely CD8 responses, the prioritized peptides were synthesized as 8-11mer minimal epitopes (Methods), and then peripheral blood mononuclear cells (PBMCs) were cultured with the synthesized peptides in short in vitro stimulation (IVS) cultures to expand neoantigen-reactive T-cells (Supplementary Table 2). After two weeks the presence of antigen-specific T-cells was assessed using IFN-gamma ELISpot against the prioritized neoepitopes. In seven patients for whom sufficient PBMCs were available, separate experiments were also performed to fully or partially deconvolve the specific antigens recognized. The results are depicted in FIGS. 26A-C and 27A-30.
FIG. 26A depicts detection of T-cell responses to patient-specific neoantigen peptide pools for nine patients. For each patient, predicted neoantigens were combined into 2 pools of 10 peptides each according to model ranking and any sequence homologies (homologous peptides were separated into different pools). Then, for each patient, the in vitro expanded PBMCs for the patient were stimulated with the 2 patient-specific neoantigen peptide pools in IFN-gamma ELISpot. Data in FIG. 26A are presented as spot forming units (SFU) per […] plated cells with background (corresponding DMSO negative controls) subtracted. Responses of single wells (patients 1-038-001, CU02, CU03 and 1-050-001) or replicates with mean and standard deviation (all other patients) against cognate peptide pools #1 and #2 are shown for patients 1-038-001, 1-050-001, 1-001-002, CU04, 1-024-001, 1-024-002 and CU05. For patients CU02 and CU03, cell numbers allowed testing against specific peptide pool #1 only. Samples with values >2-fold increase above background were considered positive and are designated with a star (responsive donors include patients 1-038-001, CU04, 1-024-001, 1-024-002, and CU02). Unresponsive donors include patients 1-050-001, 1-001-002, CU05, and CU03. […] depicts photographs of ELISpot wells with in vitro expanded PBMCs from patient CU04, stimulated in IFN-gamma ELISpot with DMSO negative control, PHA positive control, CU04-specific neoantigen peptide pool #1, CU04-specific peptide 1, CU04-specific peptide 6, and CU04-specific peptide 8.
Pre-existing T-cells from healthy donor or patient samples were expanded in the presence of cognate peptides and IL-2 in a similar approach to that applied by Ott el al.^81 Briefly, thawed PBMCs were rested overnight and stimulated in the presence of peptide pools (10 μM per peptide, 10 peptides per pool) in ImmunoCult™-XF T-cell Expansion Medium ([…] Technologies) with 10 IU/ml rhIL-2 (R&D Systems Inc., Minneapolis, Minn.) for 14 days in 24-well tissue culture plates. Cells were seeded at 2×10^6 cells/well and fed every 2-3 days by replacing 2/3 of the culture media.
Detection of IFNγ-producing T-cells was performed by ELISpot assay^142. […]

SMILES | T-cell response / recognition in IFN-gamma ELISpot
CC[C@H](C)[C@H](NC(=O)[C@H](CC(N)=O)NC(=O)[C@H](CCC(=O)O)NC(=O)[C@@H](N)CC(=O)O)C(=O)N[C@H](C(=O)N[C@H](C(=O)N[C@H](C(=O)N[C@@H](CCC(N)=O)C(=O)N[C@@H](Cc1ccccc1)C(=O)O)[C@@H](C)CC)[C@@H](C)O)[C@@H](C)O (H-DENITTIQF-OH; N-terminus and C-terminus assumed) | peptide-specific T-cell response was deconvolved
CC(C)[C@H](NC(=O)[C@@H](NC(=O)[C@@H](N)CC(=O)O)[C@@H](C)O)C(=O)N[C@@H](CCC(=O)O)C(=O)N[C@@H](Cc1ccc(O)cc1)C(=O)N1CCC[C@H]1C(=O)N[C@@H](Cc1ccc(O)cc1)C(=O)N[C@H](C(=O)N[C@@H](CO)C(=O)N[C@@H](Cc1ccccc1)C(=O)O)[C@@H](C)O (H-DTVEYPYTSF-OH; N-terminus and C-terminus assumed) | peptide-specific T-cell response was deconvolved
CSCC[C@H](NC(=O)[C@@H](NC(=O)[C@H](CC(C)C)NC(=O)[C@@H](NC(=O)[C@H](C)NC(=O)[C@H](C)NC(=O)[C@H](CC(=O)O)NC(=O)[C@H](C)NC(=O)[C@@H](NC(=O)[C@@H](N)CCC(=O)O)C(C)C)[C@@H](C)O)[C@@H](C)O)C(=O)O (H-EVADAATLTM-OH; N-terminus and C-terminus assumed) | peptide-specific T-cell response was deconvolved
CC(C)C[C@H](NC(=O)[C@@H](NC(=O)[C@H](CC(=O)O)NC(=O)[C@@H](NC(=O)[C@H](CC(=O)O)NC(=O)[C@H](CCCCN)NC(=O)[C@H](CCCCN)NC(=O)[C@@H](NC(=O)CN)[C@@H](C)O)C(C)C)C(C)C)C(=O)N[C@@H](CCCCN)C(=O)O (H-GTKKDVDVLK-OH; N-terminus and C-terminus assumed) | recognized by CD8 T-cells
CC(C)[C@H](NC(=O)[C@H](CCC(N)=O)NC(=O)[C@@H](NC(=O)[C@H](CO)NC(=O)[C@@H](NC(=O)[C@H](CC(=O)O)NC(=O)[C@@H](N)CCC(N)=O)C(C)C)C(C)C)C(=O)N[C@@H](CCC(=O)O)C(=O)N[C@@H](CCCNC(=N)N)C(=O)O (H-QDVSVQVER-OH; N-terminus and C-terminus assumed) | peptide-specific T-cell response was deconvolved
